Patent US8399378B2, “Use of neonicotinoids in pest control” (Syngenta Crop Protection LLC, priority 1998, dated 2013)

Key:
Assay type in all cases: in vivo
Ostrinia nubilalis = test: Maize plot spray test (KnockOut vs conventional maize), action against Ostrinia nubilalis; conditions: 6 days
Description: (§1) A plot (a) planted with maize cv. KnockOut® and an adjacent plot (b) of the same size which is planted with conventional maize, both showing natural infestation with Ostrinia nubilalis, Spodoptera spp. or Heliothis, are sprayed with an aqueous emulsion spray mixture comprising 200, 100, 50, 10, 5, 1 ppm of Ti-435. Immediately afterwards, plot (b) is treated with an emulsion spray mixture comprising 200, 100, 50, 10, 5, 1 ppm of the endotoxin expressed by KnockOut®. Evaluation takes place 6 days later. The percentage reduction in population (% action) is determined by comparing the number of dead pests on the plants of plot (a) with that on the plants of plot (b).
as §1, with “thiamethoxam.” for “Ti-435.”
as §1, with “imidacloprid.” for “Ti-435.”

Heliothis spp. = test: Maize plot spray test (KnockOut vs conventional maize), action against Heliothis spp.; conditions: 6 days
Description: as §1
as §1, with “thiamethoxam.” for “Ti-435.”
as §1, with “imidacloprid.” for “Ti-435.”

Aphis gossypii = test: Cotton seedling spray test, action against Aphis gossypii; conditions: 20° C, 3 and 6 days; for control (percentage reduction in population, % action): spray 400 ppm; for control level: plot (b) conventional cotton seedlings, 400 ppm compound, then 400 ppm δ-endotoxin CryIIIa
Description: Cotton seedlings on a plot (a) expressing the δ-endotoxin CryIIIa on a plot (a) and conventional cotton seedlings on a plot (b) are infected with Aphis gossypi and subsequently sprayed with a spray mixture comprising 400 ppm thiamethoxam. Immediately afterwards, plot (b) is treated with an emulsion spray mixture comprising 400 ppm of the δ-endotoxin CryIIIa. The seedlings of plot (a) and (b) are then incubated at 20° C. The test is evaluated after 3 and 6 days.
The percentage reduction in population (% action) is determined by comparing the number of dead pests on the plants of plot (a) with that on the plants of plot (b).
Cotton seedlings expressing the δ-endotoxin CryIA(c) on a plot (a) and conventional cotton seedlings on a plot (b) are infected with Aphis gossypii and subsequently sprayed with a spray mixture comprising 400 ppm thiamethoxam. Immediately afterwards, plot (b) is treated with an emulsion spray mixture comprising 400 ppm of the δ-endotoxin CryIIIa. The seedlings of plot (a) and (b) are then incubated at 20° C. The test is evaluated after 3 and 6 days.

Nilaparvata lugens = test: Rice plant pot test, action against Nilaparvata lugens (systemic); conditions: 6 days; for control (percentage reduction in population, % action): placed in aqueous emulsion with 400 ppm compound; for control level: pot (B) conventional rice plants
Description: (§2) Rice plants expressing the δ-endotoxin CryIA(b) are planted in a in pot (A) and conventional rice plants are planted in a pot (B). Pot (A) is placed in an aqueous emulsion containing 400 ppm thiamethoxam, whereas plot (B) is place in a pot containing 400 ppm thiamethoxam and 400 ppm of the δ-endotoxin CryIA(b). The plants are subsequently infected with Nilaparvata lugens larvae of the second and third stage. The test is evaluated after 6 days.
(§3) The percentage reduction in population (% action) is determined by comparing the number of dead pests on the plants of pot (A) with that on the plants of pot (B).
as §2, with “CryIA(c)” for “CryIA(b)”, “CryIA(c).” for “CryIA(b).”

Nephotettix cincticeps = test: Rice plant pot test, action against Nephotettix cincticeps (systemic); conditions: 6 days; for control (percentage reduction in population, % action): placed in aqueous emulsion with 400 ppm compound; for control level: pot (B) conventional rice plants
Description: (§4) Rice plants expressing the δ-endotoxin CryIa(b) are planted in a in pot (A) and conventional ice plants are planted in a pot (B). Pot (A) is placed in an aqueous emulsion containing 400 ppm thiamethoxam, whereas plot (B) is placed in a pot containing 400 ppm thiamethoxam and 400 ppm of the δ-endotoxin CryI(b). The plants are subsequently infected with Nephotettix cincticeps larvae of the second and third stage. The test is evaluated after 6 days.
as §3
as §4, with “CryIa(c)” for “CryIa(b)”, “CryI(c).” for “CryI(b).”

Spodoptera spp. = test: Maize plot spray test (KnockOut vs conventional maize), action against Spodoptera spp.; conditions: 6 days
Description: as §1
as §1, with “thiamethoxam.” for “Ti-435.”
as §1, with “imidacloprid.” for “Ti-435.”

Heliothis virescens = test: Spray test on young cotton plants, action against Heliothis virescens larvae; conditions: non-transgenic cotton treated with compound and conventional CryIIIA-toxin, each 100, 50, 10, 5, 1 ppm
Anthonomus grandis = test: Spray test on young cotton plants, action against Anthonomus grandis adults; conditions: non-transgenic cotton treated with compound and conventional CryIIIA-toxin, each 100, 50, 10, 5, 1 ppm
[1] = plot (a) maize cv. KnockOut, spray 200, 100, 50, 10, 5, 1 ppm, natural infestation
[2] = plot (b) conventional maize, compound 200, 100, 50, 10, 5, 1 ppm, then same ppm of the endotoxin expressed by KnockOut
[3] = pot (A) rice plants expressing δ-endotoxin CryIa(b)
[4] = pot (A) rice plants expressing δ-endotoxin CryIa(c)
[5] = comparison arm for CryIIIA cotton
[6] = comparison arm for CryIa(c) cotton

With `CN1COCN(Cc2cnc(Cl)s2)/C1=N\[N+](=O)[O-]` [thiamethoxam, 5-(2-Chlorthiazol-5-ylmethyl)-3-methyl-4-nitroimino-perhydro-1,3,5-oxadiazin] the “control (percentage reduction in population, % action)” value (Ostrinia nubilalis; [1]) was “Improved control”, the control level (Ostrinia nubilalis; [2]) was ≤ 60% and the “control (percentage reduction in population, % action)” value (Heliothis spp.; [1]) was “Improved control”. The control level (Heliothis spp.; [2]) was ≤ 60%, the “control (percentage reduction in population, % action)” value (Aphis gossypii; plot (a) cotton seedlings expressing δ-endotoxin CryIIIa) was “Improved control” and the “control (percentage reduction in population, % action)” value (Aphis gossypii; plot (a) cotton seedlings expressing δ-endotoxin CryIa(c)) was “Improved control”. The control level (Aphis gossypii) was ≤ 60%, the control level (Aphis gossypii; comparison arm for CryIA(c) cotton) was ≤ 60% and the “control (percentage reduction in population, % action)” value (Nilaparvata lugens; [3]) was “Improved control”. For the same compound, the “control (percentage reduction in population, % action)” value (Nilaparvata lugens; [4]) was “Improved control”, the control level (Nilaparvata lugens; 400 ppm compound and 400 ppm δ-endotoxin CryIA(b)) was ≤ 60% and the control level (Nilaparvata lugens; 400 ppm compound and 400 ppm δ-endotoxin CryIA(c)) was ≤ 60%. For the same compound, the “control (percentage reduction in population, % action)” value (Nephotettix cincticeps; [3]) was “Improved control”, the “control (percentage reduction in population, % action)” value (Nephotettix cincticeps; [4]) was “Improved control” and the control level (Nephotettix cincticeps; 400 ppm compound and 400 ppm δ-endotoxin CryI(b)) was ≤ 60%. The control level (Nephotettix cincticeps; 400 ppm compound and 400 ppm δ-endotoxin CryI(c)) was ≤ 60%, the “control (percentage reduction in population, % action)” value (Spodoptera spp.; [1]) was “Improved control” and the control level (Spodoptera spp.; [2]) was ≤ 60%. For the same compound, the “control of the tested insects (percentage reduction in population or feeding damage, % action)” value (Heliothis virescens; [5]) was “insufficient”, the “control of the tested insects (percentage reduction in population or feeding damage, % action)” value (Heliothis virescens; [6]) was “insufficient” and the “control of the tested insects (percentage reduction in population or feeding damage, % action)” value (Anthonomus grandis; [5]) was “insufficient”. For the same compound, the “control of the tested insects (percentage reduction in population or feeding damage, % action)” value (Anthonomus grandis; [6]) was “insufficient”.
